Test results: the NIST ThermoML archive (doi:10.1021/je3011979)

Key:
[1] = xn = mol fraction of the nth substance listed; conditions: 101 kPa, Liquid, Vibrating tube method
[2] = excess molar enthalpy (molar enthalpy of mixing); xn = mol fraction of the nth substance listed; conditions: 101 kPa, Liquid, Calvet calorimetry

CCCOC(C)=O [propyl ethanoate] + CCCCCCCCCC
Conditions | excess molar enthalpy [kcal/mol] | mass density [kg/m3]
[1], 291.15 K, x1 = 0.0491 | – | 735.2
[1], 291.15 K, x1 = 0.1081 | – | 740.2
[1], 291.15 K, x1 = 0.2054 | – | 749.4
[1], 291.15 K, x1 = 0.2933 | – | 758.8
[1], 291.15 K, x1 = 0.372 | – | 768
[1], 291.15 K, x1 = 0.4514 | – | 778.3
[1], 291.15 K, x1 = 0.5221 | – | 788.4
[1], 291.15 K, x1 = 0.5892 | – | 798.8
[1], 291.15 K, x1 = 0.6468 | – | 808.4
[1], 291.15 K, x1 = 0.7079 | – | 819.6
[1], 291.15 K, x1 = 0.7955 | – | 837.5
[1], 291.15 K, x1 = 0.8151 | – | 841.8
[1], 291.15 K, x1 = 0.8554 | – | 851.2
[1], 291.15 K, x1 = 0.8932 | – | 860.5
[1], 291.15 K, x1 = 0.9454 | – | 874.3
[1], 291.15 K, x1 = 0.9719 | – | 881.5
[1], 291.15 K, x1 = 1 | – | 889.6
[1], 298.15 K, x1 = 0.0402 | – | 729.1
[1], 298.15 K, x1 = 0.1191 | – | 735.7
[1], 298.15 K, x1 = 0.2077 | – | 744
[1], 298.15 K, x1 = 0.2921 | – | 752.8
[1], 298.15 K, x1 = 0.3727 | – | 762.1
[1], 298.15 K, x1 = 0.4509 | – | 772
[1], 298.15 K, x1 = 0.5172 | – | 781.2
[1], 298.15 K, x1 = 0.5788 | – | 790.5
[1], 298.15 K, x1 = 0.6343 | – | 799.5
[1], 298.15 K, x1 = 0.6912 | – | 809.6
[1], 298.15 K, x1 = 0.7504 | – | 820.9
[1], 298.15 K, x1 = 0.7988 | – | 830.9
[1], 298.15 K, x1 = 0.8462 | – | 841.5
[1], 298.15 K, x1 = 0.8882 | – | 851.7
[1], 298.15 K, x1 = 0.9267 | – | 861.6
[1], 298.15 K, x1 = 0.9583 | – | 870.2
[1], 298.15 K, x1 = 1 | – | 882.5
[1], 318.15 K, x1 = 0.064 | – | 715.5
[1], 318.15 K, x1 = 0.1164 | – | 719.7
[1], 318.15 K, x1 = 0.1961 | – | 726.8
[1], 318.15 K, x1 = 0.2794 | – | 734.8
[1], 318.15 K, x1 = 0.3548 | – | 742.9
[1], 318.15 K, x1 = 0.4333 | – | 752.2
[1], 318.15 K, x1 = 0.4936 | – | 760
[1], 318.15 K, x1 = 0.5563 | – | 768.6
[1], 318.15 K, x1 = 0.6213 | – | 778.5
[1], 318.15 K, x1 = 0.6781 | – | 788
[1], 318.15 K, x1 = 0.7226 | – | 795.8
[1], 318.15 K, x1 = 0.7733 | – | 805.5
[1], 318.15 K, x1 = 0.8247 | – | 816.1
[1], 318.15 K, x1 = 0.867 | – | 825.5
[1], 318.15 K, x1 = 0.9092 | – | 835.5
[1], 318.15 K, x1 = 0.9463 | – | 844.9
[1], 318.15 K, x1 = 1 | – | 859.8
[1], 328.15 K, x1 = 0.0485 | – | 706.6
[1], 328.15 K, x1 = 0.1075 | – | 711.1
[1], 328.15 K, x1 = 0.196 | – | 718.6
[1], 328.15 K, x1 = 0.2952 | – | 728
[1], 328.15 K, x1 = 0.3758 | – | 736.6
[1], 328.15 K, x1 = 0.4553 | – | 746
[1], 328.15 K, x1 = 0.5227 | – | 754.7
[1], 328.15 K, x1 = 0.5818 | – | 763
[1], 328.15 K, x1 = 0.6506 | – | 773.6
[1], 328.15 K, x1 = 0.7058 | – | 782.9
[1], 328.15 K, x1 = 0.7598 | – | 792.6
[1], 328.15 K, x1 = 0.8204 | – | 804.6
[1], 328.15 K, x1 = 0.8511 | – | 811.2
[1], 328.15 K, x1 = 0.8851 | – | 818.8
[1], 328.15 K, x1 = 0.9321 | – | 830.2
[1], 328.15 K, x1 = 0.958 | – | 836.9
[1], 328.15 K, x1 = 1 | – | 848.3
[2], 291.15 K, x1 = 0.0703 | 0.0935 | –
[2], 291.15 K, x1 = 0.1623 | 0.18 | –
[2], 291.15 K, x1 = 0.2528 | 0.2536 | –
[2], 291.15 K, x1 = 0.3401 | 0.305 | –
[2], 291.15 K, x1 = 0.4179 | 0.3344 | –
[2], 291.15 K, x1 = 0.4892 | 0.3482 | –
[2], 291.15 K, x1 = 0.5501 | 0.3489 | –
[2], 291.15 K, x1 = 0.6049 | 0.3413 | –
[2], 291.15 K, x1 = 0.615 | 0.3377 | –
[2], 291.15 K, x1 = 0.6649 | 0.3196 | –
[2], 291.15 K, x1 = 0.7166 | 0.2935 | –
[2], 291.15 K, x1 = 0.7751 | 0.2524 | –
[2], 291.15 K, x1 = 0.8324 | 0.202 | –
[2], 291.15 K, x1 = 0.8924 | 0.14 | –
[2], 291.15 K, x1 = 0.9524 | 0.0739 | –
[2], 298.15 K, x1 = 0.1028 | 0.127 | –
[2], 298.15 K, x1 = 0.2102 | 0.212 | –
[2], 298.15 K, x1 = 0.3062 | 0.2768 | –
[2], 298.15 K, x1 = 0.3924 | 0.3148 | –
[2], 298.15 K, x1 = 0.4676 | 0.3332 | –
[2], 298.15 K, x1 = 0.5348 | 0.3384 | –
[2], 298.15 K, x1 = 0.5925 | 0.3334 | –
[2], 298.15 K, x1 = 0.6163 | 0.3258 | –
[2], 298.15 K, x1 = 0.6615 | 0.3119 | –
[2], 298.15 K, x1 = 0.71 | 0.2856 | –
[2], 298.15 K, x1 = 0.7601 | 0.2572 | –
[2], 298.15 K, x1 = 0.8123 | 0.215 | –
[2], 298.15 K, x1 = 0.8626 | 0.169 | –
[2], 298.15 K, x1 = 0.9119 | 0.118 | –
[2], 298.15 K, x1 = 0.9581 | 0.0619 | –
[2], 318.15 K, x1 = 0.1083 | 0.133 | –
[2], 318.15 K, x1 = 0.2064 | 0.2204 | –
[2], 318.15 K, x1 = 0.3068 | 0.2894 | –
[2], 318.15 K, x1 = 0.3885 | 0.326 | –
[2], 318.15 K, x1 = 0.4625 | 0.3456 | –
[2], 318.15 K, x1 = 0.5203 | 0.3475 | –
[2], 318.15 K, x1 = 0.571 | 0.3423 | –
[2], 318.15 K, x1 = 0.6098 | 0.3325 | –
[2], 318.15 K, x1 = 0.6588 | 0.3176 | –
[2], 318.15 K, x1 = 0.7129 | 0.2928 | –
[2], 318.15 K, x1 = 0.7682 | 0.2588 | –
[2], 318.15 K, x1 = 0.8288 | 0.212 | –
[2], 318.15 K, x1 = 0.8862 | 0.153 | –
[2], 318.15 K, x1 = 0.948 | 0.0829 | –
